Source: EP1132382A1, “3-Oxy-7-sulfamyl-3,4-dihydro-1,2,4-benzothiadazine-1,1-dioxide derivatives having diuretic and/or natriuretic activity” (Farma Invent B.V., priority 2000, dated 2001)

How the values were obtained:
[1] = Hydrolysis of epithiazide to hydroxyhydrothiazide in aqueous phosphate buffer; assay type: physicochemical; conditions: 0.067 m phosphate buffer, pH=7, 37°C, 0.067 M aqueous phosphate buffer, read-out: epithiazide cleaved into hydroxyhydrothiazide
Method: Figure 1: Hydrolysis of epithiazide to hydroxyhydrothiazide under various temperatures and pH in a 0.067 M phosphate buffer.
Epithiazide was contacted with an aqueous phosphate buffer of 0.067 M at two different temperatures (RT and 37°C), at different pHs, ranging from 5,2 to 13.

[2] = Bioavailability study of epithiazide in healthy volunteers; assay type: in vivo
[3] = pKa of isolated hydroxyhydrothiazide; assay type: physicochemical; conditions: isolated and purified product
Method: The hydroxyhydrothiazide was synthesised by the hydrolysis of epithiazide. Conversion to hydroxyhydrothiazide was completed in 72 hours at 37 °C in a 0.067 M phosphate buffer.

[4] = Intravenous administration to dogs: elimination and urine production; assay type: in vivo; conditions: 0.08-0.4 mg/kg
Method: The pharmacotherapeutic activity of the hydroxyhydrothiazides has been evaluated. The natriuretic an/or diuretic activity has been determined by testing on animals and healthy volunteers.
The elimination from the body was monitored for 48 hours. […] The diuretic effect was monitored by measuring the urine production.

[5] = after administration of a suitable dose of epithiazide

SMILES	degraded at 10 h [1] [%]	detection in the plasma [2, 5]	detection in the urine [2, 5]	pKa [3]	distribution of the compound throughout the body [4]	diuretic effect (urine production) [4]	half-life compared with conventional thiazide-based diuretics such as epithiazide and hydrochlorothiazide ([4]; elimination monitored for 48 hours)	biological half-life (relative to epithiazide) ([2]; compound found after administration of epithiazide)
NS(=O)(=O)c1cc2c(cc1Cl)NC(CSCC(F)(F)F)NS2(=O)=O (centres unmarked) [epithiazide]	> 80	no epithiazide could be detected	detected	–	–	–	–	–
NS(=O)(=O)c1cc2c(cc1Cl)NC(O)NS2(=O)=O (centres unmarked) [hydroxyhydrothiazide]	–	–	–	9.5	rapid distribution	instant diuretic effect	about twice as long	longer biological half-life
